Where two headings read alike, the source gives them in different places.
Assays:
[1] = tested on: acetylcholinesterase (AchE); conditions: cited from earlier work
[2] = tested on: Ceratitis capitata (strain Benakeion); test: survival of flies after insecticide treatment (FIG. 1); format: in vivo; conditions: 16 h after insecticide-treatment
[3] = tested on: Drosophila melanogaster (strain OR/R); test: as above; format: in vivo; conditions: 16 h after insecticide-treatment
[4] = tested on: tobacco budworm Heliothis virescens; conditions: cited from earlier work
[5] = tested on: adult boll weevil Anthonomus granids Boheman; conditions: cited from earlier work
[6] = tested on: nicotinergic acetylcholine receptor (nAcR); conditions: relative to imidacloprid; cited from earlier work
housefly = conditions: relative to imidacloprid; cited from earlier work
[7] = tested on: mixed function oxidase system; conditions: in vitro mixed function oxidase system; cited from earlier work

Row | SMILES | AchE inhibition [1] | activity compared to Methamidophos [2] | sensitivity of flies ((%) survival) [2] | activity compared to Methamidophos [3] | sensitivity of flies ((%) survival) [3] | activity in the tobacco budworm ([4]; acephate compared with methamidophos) | methamidophos observed in budworm larvae ([4]; within 2 hours of a topical acephate application) | fold more toxic than acephate [5] [fold] | activity in the tobacco budworm ([4]; in vivo) | decrease of binding affinity to nAcR [6] [fold] | potency in the housefly (housefly) | conversion to imidacloprid [7]
1 | COP(=O)(NC(C)=O)SC (stereo not drawn) [Acephate, O, S dimethyl acetylphosphoramidothicate] | not an AchE inhibitor | less active | sensitive | less active | sensitive | comparable activity | small amount of methamidophos |  |  |  |  | 
2 | COP(N)(=O)SC (stereo not drawn) [Methamidophos, O, S-dimethyl phosphoramidothicate] | potent acetylcholinesterase (AchE) inhibitor |  | sensitive |  | sensitive |  |  | 75 | comparable activity |  |  | 
3 | CN1CCN(Cc2ccc(Cl)nc2)C1=N[N+](=O)[O-] [N-Me-imidacloprid] |  |  |  |  |  |  |  |  |  | 100 | as potent as imidacloprid | can be converted to imidacloprid

Source: patent US20040003429A1, “Pest control system” (priority 2000, published 2004)
